Laboratory results taken from patent publication US7932283B2, “Fungicide N-cyclopropyl-sulfonylamide derivatives” (Bayer Cropscience AG, priority 2006, dated 2011).

experiment: logP by HPLC on reversed-phase column (C 18), EEC Directive 79/B31 Annex V.A8, methods A and B; assay type: physicochemical; conditions: reversed-phase HPLC column (C 18), HPLC reversed-phase C 18, method A: 43° C., 0.1% aqueous phosphoric acid, acetonitrile, linear gradient 10% to 90% acetonitrile
Procedure: Calibration was carried out using unbranched alkan-2-ones (having 3 to 16 carbon atoms) with known logP values (determination of the logP values by the retention times using linear interpolation between two successive alkanones).

SMILES	chromatographic logP
Cc1ncc(C(=O)N(C2CC2)S(=O)(=O)c2cccc(O)c2)s1 [Compound 60]	2.8
CCOC(=O)c1[nH]c(C)c(C(=O)N(C2CC2)S(=O)(=O)c2ccc(C(C)(C)C)cc2)c1C [Compound 33]	4.13
Cc1nn(C)c(F)c1C(=O)N(C1CC1)S(=O)(=O)c1ccccc1 [Compound 181]	2.28
Cc1nc(C(=O)N(C2CC2)S(=O)(=O)c2ccc(C(C)(C)C)cc2)cs1 [Compound 72]	3.59

Further lines, results first:

chromatographic logP	SMILES
3.48	Cc1nn(C)c(F)c1C(=O)N(C1CC1)S(=O)(=O)c1cc(O)cc(O)c1 [Compound 193]
2.77	Cc1occc1C(=O)N(C1CC1)S(=O)(=O)c1ccccc1O [Compound 4]
3.03	Cc1nc(C(=O)N(C2CC2)S(=O)(=O)c2ccc(O)cc2O)cs1 [Compound 71]
2.25	Cc1nn(C)c(F)c1C(=O)N(C1CC1)S(=O)(=O)c1ccccc1[N+](=O)[O-] [Compound 202]
3.63	CCOC(=O)c1[nH]c(C)c(C(=O)N(C2CC2)S(=O)(=O)c2ccc(O)cc2O)c1C [Compound 32]
3.46	Cc1ncc(C(=O)N(C2CC2)S(=O)(=O)c2ccc(O)c(C(F)(F)F)c2)s1 [Compound 62]

same assay, conditions: reversed-phase HPLC column (C 18), HPLC reversed-phase C 18, method B: 40° C., 0.1% aqueous formic acid and acetonitrile, linear gradient 10% to 90% acetonitrile

SMILES	chromatographic logP
Cn1nc(C(F)(F)F)c(C(=O)N(C2CC2)S(=O)(=O)c2c(O)cc(C(F)(F)F)cc2O)c1F [Compound 373]	3.9
Cn1nc(C(F)(F)F)c(C(=O)N(C2CC2)S(=O)(=O)c2ccccc2OC(F)(F)F)c1F [Compound 365]	3.2
CCCOc1nn(C)cc1C(=O)N(C1CC1)S(=O)(=O)c1ccc(Oc2ccc3ccc(=O)oc3c2)cc1Br [Compound 287]	3.4
COc1cscc1C(=O)N(C1CC1)S(=O)(=O)c1cccc(O)c1O [Compound 25]	3.3
Cn1cc(C(=O)N(C2CC2)S(=O)(=O)c2cccc(O)c2O)c(C(F)(F)F)c1 [Compound 36]	3.3
CCc1nn(C)c(F)c1C(=O)N(C1CC1)S(=O)(=O)c1ccc(O)c(O)c1 [Compound 378]	3.8
CC(F)c1nn(C)cc1C(=O)N(C1CC1)S(=O)(=O)c1ccc(Oc2ccc(Br)cc2)cc1 (centres unmarked) [Compound 122]	4.1
CCCCc1ccc(S(=O)(=O)N(C(=O)c2c(CC)nn(C)c2F)C2CC2)cc1 [Compound 383]	4.2
O=C(c1ccsc1I)N(C1CC1)S(=O)(=O)c1cccc(O)c1O [Compound 19]	3.8
COc1nn(C)c(O)c1C(=O)N(C1CC1)S(=O)(=O)c1ccc(Oc2ccccc2)cc1 [Compound 280]	3.8
CCCOc1nn(C)cc1C(=O)N(C1CC1)S(=O)(=O)c1ccc(Oc2ccc(C(F)(F)F)cc2)cc1Br [Compound 298]	4.6
CC(C)c1nn(C)c(F)c1C(=O)N(C1CC1)S(=O)(=O)c1ccc(O)cc1O [Compound 96]	3.8
CCCOc1nn(C)cc1C(=O)N(C1CC1)S(=O)(=O)c1ccc(Oc2ccc(F)c(O)c2)cc1Br [Compound 294]	4.5

The next lines start with the values.

chromatographic logP	SMILES
3.7	Cn1nc(C(F)(F)F)c(C(=O)N(C2CC2)S(=O)(=O)c2ccc(Oc3cccc(C#N)c3Cl)cc2)c1F [Compound 371]
3.4	CC(F)c1nn(C)cc1C(=O)N(C1CC1)S(=O)(=O)c1ccc(O)c(O)c1O (centres unmarked) [Compound 120]
3.9	COc1cscc1C(=O)N(C1CC1)S(=O)(=O)c1ccc(O)c(O)c1O [Compound 27]
2.7	CCCOc1nn(C)cc1C(=O)N(C1CC1)S(=O)(=O)c1ccc(Oc2ccc(C)nc2)cc1Br [Compound 285]
2.7	Cc1cc(C(=O)N(C2CC2)S(=O)(=O)c2cccc(O)c2O)nn1C [Compound 74]
4.2	CCc1nn(C)c(F)c1C(=O)N(C1CC1)S(=O)(=O)c1ccc(Oc2cccc(C(F)(F)F)c2)cc1 [Compound 388]
3.8	Cc1cc(C(=O)N(C2CC2)S(=O)(=O)c2cccc(O)c2O)c(C)o1 [Compound 5]
3.1	CC(C)c1nn(C)c(F)c1C(=O)N(C1CC1)S(=O)(=O)c1ccccc1O [Compound 95]
4.3	COc1nn(C)c(O)c1C(=O)N(C1CC1)S(=O)(=O)c1ccc(Oc2ccc(Br)cc2)cc1 [Compound 284]
3.6	Cc1nn(C)c(N(C)C)c1C(=O)N(C1CC1)S(=O)(=O)c1ccc(O)c(O)c1O [Compound 229]
4.3	O=C(c1ccsc1I)N(C1CC1)S(=O)(=O)c1ccc(Oc2ccccc2)cc1 [Compound 21]
4.1	CCCOc1nn(C)cc1C(=O)N(C1CC1)S(=O)(=O)c1ccc(Oc2ccccc2)cc1Br [Compound 290]
3.2	COc1c(C(=O)N(C2CC2)S(=O)(=O)c2ccc(O)c(O)c2O)c(C)nn1C [Compound 230]
5.1	CCCOc1nn(C)cc1C(=O)N(C1CC1)S(=O)(=O)c1ccc(Oc2cc(O)cc(O)c2)cc1Br [Compound 305]
1.9	COc1ccc(S(=O)(=O)N(C(=O)c2cn(C)nc2OC)C2CC2)cc1OC [Compound 395]
4.2	CCCOc1nn(C)cc1C(=O)N(C1CC1)S(=O)(=O)c1ccc(Oc2ccccc2O)cc1Br [Compound 291]
3	Cn1nc(C(F)F)c(C(=O)N(C2CC2)S(=O)(=O)c2ccccc2C(F)(F)F)c1F [Compound 106]
4	Cn1cc(C(=O)N(C2CC2)S(=O)(=O)c2ccc(Oc3ccccc3)cc2)c(C(F)(F)F)c1 [Compound 38]
3.9	Cn1cc(C(=O)N(C2CC2)S(=O)(=O)c2ccc(O)c(O)c2O)c(C(F)(F)F)c1 [Compound 37]
4.3	CCc1nn(C)c(F)c1C(=O)N(C1CC1)S(=O)(=O)c1ccc(Oc2ccc(C(F)(F)F)cc2)cc1 [Compound 389]

same assay, conditions: reversed-phase HPLC column (C 18), LogP method A: HPLC reversed-phase C 18, 43° C., 0.1% aqueous phosphoric acid / acetonitrile, linear gradient 10% to 90% acetonitrile

SMILES	chromatographic logP
Cc1nn(C)c(C)c1C(=O)N(C1CC1)S(=O)(=O)c1ccc(C(C)(C)C)cc1 [Compound 414]	3.41
Cc1c(C(=O)N(C2CC2)S(=O)(=O)c2ccc(O)c(O)c2)sc(=O)n1Cc1ccccc1 [Compound 626]	3.01
COCCn1c(C)c(C(=O)N(C2CC2)S(=O)(=O)c2ccc(O)cc2O)sc1=O [Compound 620]	2.01
Cc1nn(C)c(Oc2cccc(Cl)c2)c1C(=O)N(C1CC1)S(=O)(=O)c1ccc(C(F)(F)F)cc1 [Compound 400]	4.13
Cc1c(C(=O)N(C2CC2)S(=O)(=O)c2ccc(C(F)(F)F)cc2)sc(=O)n1C [Compound 612]	2.01

Now from value to compound:

chromatographic logP	SMILES
3.63	Cc1nn(C)c(O)c1C(=O)N(C1CC1)S(=O)(=O)c1ccc(O)c(O)c1 [Compound 407]
2.74	Cc1n[nH]c(C)c1C(=O)N(C1CC1)S(=O)(=O)c1ccc(O)c(O)c1 [Compound 409]
3.04	Cc1n[nH]c(C)c1C(=O)N(C1CC1)S(=O)(=O)c1ccc(C(C)(C)C)cc1 [Compound 410]
4.46	Cc1nn(C)c(Oc2cccc(O)c2)c1C(=O)N(C1CC1)S(=O)(=O)c1ccc(O)c(O)c1 [Compound 405]
3.01	Cc1c(C(=O)N(C2CC2)S(=O)(=O)c2ccc(O)c(C(F)(F)F)c2)sc(=O)n1Cc1ccccc1 [Compound 625]
2.01	CCc1c(C(=O)N(C2CC2)S(=O)(=O)c2cccc(O)c2)sc(=O)n1C1CC1 [Compound 615]

same assay, conditions: reversed-phase HPLC column (C 18), LogP method B: HPLC reversed-phase C 18, 40° C., 0.1% aqueous formic acid / acetonitrile, linear gradient 10% to 90% acetonitrile

SMILES	chromatographic logP
O=C(c1cccnc1O)N(C1CC1)S(=O)(=O)c1ccc(Oc2ccc(Br)cc2)cc1 [Compound 648]	4.3
CCOc1nn(C)cc1C(=O)N(C1CC1)S(=O)(=O)c1ccc(Oc2ccc(OC)cc2)cc1O [Compound 529]	3.5
COc1nn(C)cc1C(=O)N(C1CC1)S(=O)(=O)c1csc(O)c1O [Compound 440]	3.1
COc1nn(C)cc1C(=O)N(C1CC1)S(=O)(=O)c1ccc(Oc2ccc(C)c(O)c2)cc1Br [Compound 470]	3.8
CCOc1nn(C)cc1C(=O)N(C1CC1)S(=O)(=O)c1ccc(Oc2ccc(C)cc2)cc1Cl [Compound 525]	2.2
COc1nn(C)cc1C(=O)N(C1CC1)S(=O)(=O)c1ccc(Oc2cccc(C(F)(F)F)c2)cc1Br [Compound 472]	3.8
Cc1nocc1C(=O)N(C1CC1)S(=O)(=O)c1ccc(Oc2ccccc2)cc1 [Compound 601]	3.7
O=C(c1cccnc1O)N(C1CC1)S(=O)(=O)c1ccc(Oc2ccccc2)cc1 [Compound 646]	3.7

Next, values leading:

chromatographic logP	SMILES
3.5	COc1nn(C)cc1C(=O)N(C1CC1)S(=O)(=O)c1ccc(Oc2cccc(N(C)C)c2)cc1Br [Compound 466]
5.4	CCCCCc1ccc(Oc2ccc(S(=O)(=O)N(C(=O)c3cn(C)nc3OC)C3CC3)c(Br)c2)cc1 [Compound 482]
3.4	Cn1ncc(I)c1C(=O)N(C1CC1)S(=O)(=O)c1ccc(O)c(O)c1O [Compound 663]
3.7	COc1nn(C)cc1C(=O)N(C1CC1)S(=O)(=O)c1ccc(Oc2ccc(C)cc2)cc1Br [Compound 467]
4.3	COc1nn(C)cc1C(=O)N(C1CC1)S(=O)(=O)c1ccc(Oc2cc(O)cc(O)c2)cc1Br [Compound 481]
2	COc1nn(C)cc1C(=O)N(C1CC1)S(=O)(=O)c1cnc(O)c(Br)c1 [Compound 449]
1.7	COc1nn(C)cc1C(=O)N(C1CC1)S(=O)(=O)c1cnn(C)c1O [Compound 444]
3.3	COc1nn(C)cc1C(=O)N(C1CC1)S(=O)(=O)c1ccc(Oc2ccccc2)cc1Br [Compound 464]

same assay, conditions: reversed-phase HPLC column (C 18), Method A: 43° C., 0.1% aqueous phosphoric acid, acetonitrile

chromatographic logP	SMILES
3.27	Cc1nn(C)c(F)c1C(=O)N(C1CC1c1ccccc1)S(=O)(=O)c1ccccc1O (centres unmarked) [Compound 676]
